Experimental data taken from PubChem BioAssay AID330 (DTP/NCI, 2004).
“And” between values parts separate entries of the source, which are not always exact repeats. Equal entries are not always repeated. Inconclusive results and toxic doses are left out. The calls were made as follows: active = survival T/C of 150% or more; inactive = T/C below 125% in these data.

Tested on: P388 leukemia ip, CD2F1 mice, survival T/C
Test: NCI In Vivo Anticancer Drug Screen. Data for tumor model P388 Leukemia (intraperitoneal) in CD2F1 (CDF1) mice
Settings: endpoint: median survival time, higher = longer survival
Method in brief: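 Mice carrying the transplanted tumor received test compound or vehicle. Survival was recorded in each group, and the value is the treated-group measurement divided by that of the vehicle-treated control group.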

[1] = dose: 50.0 mg/kg/injection, schedule: Q01DX009 (ip), vehicle: Klucel (hydroxypropylcellulose) (HPC)
[2] = dose: 100.0 mg/kg/injection, schedule: Q01DX009 (ip), vehicle: Klucel (hydroxypropylcellulose) (HPC)
[3] = dose: 200.0 mg/kg/injection, schedule: Q01DX009 (ip), vehicle: Klucel (hydroxypropylcellulose) (HPC)
[4] = dose: 60.0 mg/kg/injection, schedule: Q01DX005 (ip), vehicle: saline with Tween-80
[5] = dose: 120.0 mg/kg/injection, schedule: Q01DX005 (ip), vehicle: saline with Tween-80
[6] = dose: 240.0 mg/kg/injection, schedule: Q01DX005 (ip), vehicle: saline with Tween-80
[7] = dose: 100.0 mg/kg/injection, schedule: Q04DX002 (ip), vehicle: saline
[8] = dose: 200.0 mg/kg/injection, schedule: Q04DX002 (ip), vehicle: saline
[9] = dose: 400.0 mg/kg/injection, schedule: Q04DX002 (ip), vehicle: saline
[10] = dose: 100.0 mg/kg/injection, schedule: Q01DX009 (ip), vehicle: saline with Tween-80
[11] = dose: 200.0 mg/kg/injection, schedule: Q01DX009 (ip), vehicle: saline with Tween-80
[12] = dose: 400.0 mg/kg/injection, schedule: Q01DX009 (ip), vehicle: saline with Tween-80
[13] = dose: 400.0 mg/kg/injection, schedule: Q04DX003 (ip), vehicle: saline with Tween-80
[14] = dose: 100.0 mg/kg/injection, schedule: Q04DX003 (ip), vehicle: saline
[15] = dose: 50.0 mg/kg/injection, schedule: Q01DX005 (ip), vehicle: saline with Tween-80
[16] = dose: 100.0 mg/kg/injection, schedule: Q01DX005 (ip), vehicle: saline with Tween-80
[17] = dose: 200.0 mg/kg/injection, schedule: Q01DX005 (ip), vehicle: saline with Tween-80

Measured: T/C

COC(=O)c1ccc(SCC2=Nc3c(nc(N)[nH]c3=O)NCC2)cc1
inactive: dose: 12.5 mg/kg/injection, schedule: Q01DX009 (ip), vehicle: distilled water + Tween-80 99 % of control | dose: 25.0 mg/kg/injection, schedule: Q01DX009 (ip), vehicle: distilled water + Tween-80 93 % of control | dose: 50.0 mg/kg/injection, schedule: Q01DX009 (ip), vehicle: distilled water + Tween-80 90 % of control | dose: 100.0 mg/kg/injection, schedule: Q01DX009 (ip), vehicle: distilled water + Tween-80 90 % of control

CN1C(=O)C(=O)N(Cc2ccc(CN3C(=O)C(=O)N(C)C3=O)cc2)C1=O
inactive: [1] 101 % of control | [2] 103 % of control | [3] 100 % of control

COC1=CCC=C(C(C)(C)C)C1
inactive: [4] 98 % of control | [5] 94 % of control | [6] 103 % of control

CN(C)C1=CC(=Nc2ccccc2)SC(C)(C)C1
inactive: dose: 15.0 mg/kg/injection, schedule: Q01DX005 (ip), vehicle: saline with Tween-80 100 % of control | dose: 30.0 mg/kg/injection, schedule: Q01DX005 (ip), vehicle: saline with Tween-80 100 % of control | dose: 60.0 mg/kg/injection, schedule: Q01DX005 (ip), vehicle: Klucel (hydroxypropylcellulose) (HPC) 100 % of control | [4] 99 % of control

CC1(C)O[Te]2(OC1(C)C)OC(C)(C)C(C)(C)O2
inactive: dose: 3.12 mg/kg/injection, schedule: Q01DX001 (ip), vehicle: saline with Tween-80 100 % of control | dose: 6.25 mg/kg/injection, schedule: Q01DX001 (ip), vehicle: saline with Tween-80 105 % of control | dose: 100.0 mg/kg/injection, schedule: Q01DX001 (ip), vehicle: saline with Tween-80 93 % of control

CC(/C=N\Nc1ccc(Cl)cc1)=N/NC(=O)C[N+](C)(C)C
inactive: [7] 101 % of control | [8] 100 % of control | [9] 92 % of control

CS(=O)(=O)OCCCCO
inactive: [10] 100 % of control | dose: 100.0 mg/kg/injection, schedule: Q04DX003 (ip), vehicle: saline with Tween-80 100 % of control | [11] 110 % of control | dose: 200.0 mg/kg/injection, schedule: Q04DX003 (ip), vehicle: saline with Tween-80 100 % of control | [12] 110 % of control | [13] 91 % of control

CC(C)OCCCN(Cn1c(=S)sc2ccccc21)Cn1c(=S)sc2ccccc21
inactive: [1] 91 % of control | [2] 89 % of control | [3] 87 % of control

CN1C(=C2C=CC(=NS(=O)(=O)c3ccc(Cl)cc3)C=C2)Sc2ccccc21
inactive: [14] 105 % of control | dose: 200.0 mg/kg/injection, schedule: Q04DX003 (ip), vehicle: saline 106 % of control | dose: 400.0 mg/kg/injection, schedule: Q04DX003 (ip), vehicle: saline 100 % of control

Cc1nn(C(=S)S)c(C)c1N=Nc1ccc(Br)cc1
inactive: dose: 100.0 mg/kg/injection, schedule: Q04DX002 (ip), vehicle: Klucel (hydroxypropylcellulose) (HPC) 113 % of control | dose: 200.0 mg/kg/injection, schedule: Q04DX002 (ip), vehicle: Klucel (hydroxypropylcellulose) (HPC) 90 % of control | dose: 400.0 mg/kg/injection, schedule: Q04DX002 (ip), vehicle: Klucel (hydroxypropylcellulose) (HPC) 112 % of control

O=C(CCNC(=O)OCc1ccccc1)NC(CSCc1ccccc1)C(=O)O (centres undefined)
inactive: dose: 6.25 mg/kg/injection, schedule: Q01DX009 (ip), vehicle: water 100 % of control | dose: 12.5 mg/kg/injection, schedule: Q01DX009 (ip), vehicle: water 100 % of control | dose: 25.0 mg/kg/injection, schedule: Q01DX009 (ip), vehicle: water 95 % of control | dose: 50.0 mg/kg/injection, schedule: Q01DX009 (ip), vehicle: water 100 % of control | dose: 100.0 mg/kg/injection, schedule: Q01DX009 (ip), vehicle: water 95 % of control

CC1=NCCc2cc3c(cc21)OCO3
inactive: dose: 25.0 mg/kg/injection, schedule: Q01DX001 (ip), vehicle: saline + alcohol 99 % of control | dose: 50.0 mg/kg/injection, schedule: Q01DX001 (ip), vehicle: saline + alcohol 97 % of control

CCOC(=O)C(=[N+]=[N-])C(=O)OCC12CCC=C1CC1(CC2)OCCO1 (centres undefined)
inactive: [15] 101 % of control | [16] 108 % of control | [17] 102 % of control

C[C@]12CC[C@H](O)C[C@@H]1CC[C@@H]1[C@@H]2C(=O)C[C@@]2(C)[C@H]1CC[C@]2(O)C(=O)CBr
inactive: dose: 264.0 mg/kg/injection, schedule: Q04DX003 (ip), vehicle: saline with Tween-80 109 % of control | [13] 100 % of control | dose: 600.0 mg/kg/injection, schedule: Q04DX003 (ip), vehicle: saline with Tween-80 95 % of control

CC=O
inactive: dose: 0.5 % in 0.5 ml injection vol, schedule: Q01DX009 (ip), vehicle: water 100 % of control and 103 % of control and 109 % of control | dose: 1.0 % in 0.5 ml injection vol, schedule: Q01DX009 (ip), vehicle: water 104 % of control and 112 % of control | dose: 2.0 % in 0.5 ml injection vol, schedule: Q01DX009 (ip), vehicle: water 117 % of control

COC(=O)c1ccccc1S(=O)(=O)NC(C)C
inactive: dose: 50.0 mg/kg/injection, schedule: Q01DX005 (ip), vehicle: Klucel (hydroxypropylcellulose) (HPC) 99 % of control | dose: 100.0 mg/kg/injection, schedule: Q01DX005 (ip), vehicle: Klucel (hydroxypropylcellulose) (HPC) 96 % of control | dose: 200.0 mg/kg/injection, schedule: Q01DX005 (ip), vehicle: Klucel (hydroxypropylcellulose) (HPC) 105 % of control

O=C1NC2CCCC1C(c1ccccc1Cl)NC2c1ccccc1Cl (centres undefined)
inactive: dose: 100.0 mg/kg/injection, schedule: Q04DX003 (ip), vehicle: suspension in saline 98 % of control | dose: 200.0 mg/kg/injection, schedule: Q04DX003 (ip), vehicle: suspension in saline 100 % of control | dose: 400.0 mg/kg/injection, schedule: Q04DX003 (ip), vehicle: suspension in saline 100 % of control

c1ccc2c(c1)-c1cc3ccc4ccccc4c3nc1C1OC21 (centres undefined)
inactive: dose: 25.0 mg/kg/injection, schedule: Q04DX002 (ip), vehicle: saline with Tween-80 105 % of control | dose: 50.0 mg/kg/injection, schedule: Q04DX002 (ip), vehicle: saline with Tween-80 99 % of control | dose: 100.0 mg/kg/injection, schedule: Q04DX002 (ip), vehicle: saline with Tween-80 100 % of control

COC(=O)c1cc(-c2ccc(C)cc2)c2c(=O)n(-c3ccccc3)[nH]c2n1
inactive: [4] 100 % of control | [5] 100 % of control | [6] 97 % of control

CCOC(=O)NC(=O)CNc1ncc([N+](=O)[O-])s1
inactive: dose: 100.0 mg/kg/injection, schedule: Q01DX001 (ip), vehicle: Klucel (hydroxypropylcellulose) (HPC) 100 % of control | dose: 200.0 mg/kg/injection, schedule: Q01DX001 (ip), vehicle: Klucel (hydroxypropylcellulose) (HPC) 108 % of control

FC(F)(F)C1OC2CCCN2C2=C1CCc1ccccc12 (centres undefined)
inactive: [7] 108 % of control | [8] 101 % of control | [9] 100 % of control

S=C(Nc1ccc(Cl)c(Cl)c1)Nc1ccccc1SCc1cc(Cl)cc2c1OCOC2
inactive: [1] 96 % of control | [2] 88 % of control | [3] 98 % of control

CCN(CC)CCCC(C)Nc1nccc2c(Cl)cccc12 (centres undefined)
inactive: dose: 50.0 mg/kg/injection, schedule: Q01DX005 (ip), vehicle: saline 108 % of control | dose: 100.0 mg/kg/injection, schedule: Q01DX005 (ip), vehicle: saline 109 % of control

CC1(CN2CCCC2)CCC(NC(=O)C(c2ccccc2)c2ccccc2)C(C)(C)O1 (centres undefined)
inactive: dose: 25.0 mg/kg/injection, schedule: Q01DX001 (ip), vehicle: saline with Tween-80 107 % of control | dose: 50.0 mg/kg/injection, schedule: Q01DX001 (ip), vehicle: saline with Tween-80 104 % of control

CNC(=S)N/N=C(\C)C(C)(C)C
inactive: dose: 25.0 mg/kg/injection, schedule: Q04DX003 (ip), vehicle: saline 101 % of control | dose: 50.0 mg/kg/injection, schedule: Q04DX003 (ip), vehicle: saline 101 % of control | [14] 99 % of control and 104 % of control

O=C1CSC(c2ccc([N+](=O)[O-])cc2[N+](=O)[O-])N1c1nncs1 (centres undefined)
inactive: [15] 95 % of control | [16] 95 % of control | [17] 95 % of control

c1ccc2cc(-c3nc4cccc5c4n3CCC5)ccc2c1
inactive: [10] 105 % of control | [11] 95 % of control | [12] 115 % of control
